Measurements published in ChEMBL document CHEMBL1132798 (Bioorg Med Chem Lett, 2000).
Calls of active or inactive are those of the source. The calls are words filed in the database; no cut-off is given here.

Legend:
Mus musculus [1] = species: Mus musculus; test: Compound was evaluated for antinociceptive activity in mouse; format: functional
Mus musculus [2] = species: Mus musculus; test: Compound was evaluated for antinociceptive activity in mouse using tail flick vs morphine assay; format: functional
[3] = target: Delta-type opioid receptor (Rattus norvegicus, UniProt P33533); test: Compound was evaluated for its ability to displace [3H]p-CI-DPDPE in C6 glioma cells expressing the cloned Opioid receptor delta 1; format: cell-based
Sequence of Delta-type opioid receptor (P33533 whole entry): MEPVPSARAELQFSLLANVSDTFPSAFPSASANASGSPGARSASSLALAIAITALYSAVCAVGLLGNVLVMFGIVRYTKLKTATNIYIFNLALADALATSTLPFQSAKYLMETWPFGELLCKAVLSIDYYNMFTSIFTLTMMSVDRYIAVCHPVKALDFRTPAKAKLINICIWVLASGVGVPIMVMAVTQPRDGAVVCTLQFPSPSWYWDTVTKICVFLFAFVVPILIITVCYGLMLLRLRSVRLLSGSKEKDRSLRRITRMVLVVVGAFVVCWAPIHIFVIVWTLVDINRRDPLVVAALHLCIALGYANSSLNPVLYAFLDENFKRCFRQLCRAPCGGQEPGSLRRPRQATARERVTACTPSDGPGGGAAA

[4] = target: Kappa-type opioid receptor (Rattus norvegicus, UniProt P34975); test: Compound was evaluated for its ability to displace [3H]U-69593 in CHO cells expressing the cloned Opioid receptor kappa 1; format: cell-based
Sequence of Kappa-type opioid receptor (P34975 whole entry): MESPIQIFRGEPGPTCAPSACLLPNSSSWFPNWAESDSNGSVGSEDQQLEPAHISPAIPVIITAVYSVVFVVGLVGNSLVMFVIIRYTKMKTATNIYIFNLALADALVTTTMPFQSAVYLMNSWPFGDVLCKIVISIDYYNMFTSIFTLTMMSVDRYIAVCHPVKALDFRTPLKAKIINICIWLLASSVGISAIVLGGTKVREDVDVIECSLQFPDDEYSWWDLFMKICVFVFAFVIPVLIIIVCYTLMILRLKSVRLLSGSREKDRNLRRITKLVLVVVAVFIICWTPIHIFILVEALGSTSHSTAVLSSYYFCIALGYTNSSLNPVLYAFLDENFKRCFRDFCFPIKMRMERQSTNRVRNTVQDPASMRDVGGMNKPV

[5] = target: Opioid receptors; mu & delta (Homo sapiens) (UniProt P41143+P35372); test: Ratio of binding affinity to mu receptor to that of delta receptor; format: protein assay
Sequence of Opioid receptors; mu & delta (Homo sapiens) (P35372 whole entry, looked up): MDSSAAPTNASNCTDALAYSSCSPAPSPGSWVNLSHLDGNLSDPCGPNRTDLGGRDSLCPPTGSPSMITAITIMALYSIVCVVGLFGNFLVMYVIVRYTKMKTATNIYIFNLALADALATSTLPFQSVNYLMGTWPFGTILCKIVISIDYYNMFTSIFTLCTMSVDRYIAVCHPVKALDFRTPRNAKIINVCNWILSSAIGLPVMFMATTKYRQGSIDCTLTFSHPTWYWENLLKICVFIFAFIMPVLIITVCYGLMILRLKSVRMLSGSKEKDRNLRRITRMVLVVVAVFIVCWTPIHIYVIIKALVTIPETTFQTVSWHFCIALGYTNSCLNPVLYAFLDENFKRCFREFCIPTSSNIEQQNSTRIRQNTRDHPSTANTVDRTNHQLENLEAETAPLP
Sequence of Opioid receptors; mu & delta (Homo sapiens) (P41143 whole entry, looked up): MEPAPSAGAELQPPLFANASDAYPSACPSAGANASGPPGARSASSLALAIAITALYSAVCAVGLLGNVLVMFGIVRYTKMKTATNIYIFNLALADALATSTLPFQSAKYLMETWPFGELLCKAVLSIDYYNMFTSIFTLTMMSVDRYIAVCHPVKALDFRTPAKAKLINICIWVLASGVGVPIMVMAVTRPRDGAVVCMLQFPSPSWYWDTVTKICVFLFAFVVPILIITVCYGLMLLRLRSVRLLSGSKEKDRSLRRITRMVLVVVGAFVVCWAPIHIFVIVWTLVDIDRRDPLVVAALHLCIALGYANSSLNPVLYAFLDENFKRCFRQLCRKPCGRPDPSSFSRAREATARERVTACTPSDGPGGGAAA

Mu-type opioid receptor = Mu-type opioid receptor (Rattus norvegicus, UniProt P33535); test: Compound was evaluated for its ability to displace [3H]DAMGO in C6 glioma cells expressing the cloned Opioid receptor mu 1; format: cell-based
Sequence of Mu-type opioid receptor (P33535 whole entry): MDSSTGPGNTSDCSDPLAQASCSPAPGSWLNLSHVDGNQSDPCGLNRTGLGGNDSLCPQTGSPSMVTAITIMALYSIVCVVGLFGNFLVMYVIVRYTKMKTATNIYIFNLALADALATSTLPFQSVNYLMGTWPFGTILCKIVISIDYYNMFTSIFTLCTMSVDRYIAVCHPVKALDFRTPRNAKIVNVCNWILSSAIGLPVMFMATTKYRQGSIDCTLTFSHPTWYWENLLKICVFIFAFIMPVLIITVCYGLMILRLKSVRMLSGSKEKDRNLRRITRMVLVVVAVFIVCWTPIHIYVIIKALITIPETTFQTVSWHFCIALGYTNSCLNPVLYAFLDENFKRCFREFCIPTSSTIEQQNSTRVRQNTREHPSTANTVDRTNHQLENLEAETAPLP

Mus musculus [6] = species: Mus musculus; test: Compound was evaluated for antinociceptive activity in mouse using paraphenylquinone assay; Inactive; format: functional, organism-based
Mus musculus [7] = species: Mus musculus; test: Compound was evaluated for antinociceptive activity in mouse using hot plate assay; Inactive; format: functional, organism-based
Mus musculus [8] = species: Mus musculus; test: Compound was evaluated for antinociceptive activity in mouse using tail flick vs morphine assay; Inactive; format: functional, organism-based
Mus musculus [9] = species: Mus musculus; test: Compound was evaluated for antinociceptive activity in mouse using tail flick assay; Inactive; format: functional, organism-based
Mus musculus [10] = species: Mus musculus; test: Compound was evaluated for antinociceptive activity in mouse; IA means inactive; format: functional, organism-based
Mus musculus [11] = species: Mus musculus; test: Compound was evaluated for antinociceptive activity in mouse using tail flick assay; format: functional
Mus musculus [12] = species: Mus musculus; test: Compound was evaluated for antinociceptive activity in mouse using paraphenylquinone assay; format: functional
Mus musculus [13] = species: Mus musculus; test: Compound was evaluated for antinociceptive activity in mouse using hot plate assay; format: functional

C=CCN1CC[C@]23c4c5ccc(O)c4O[C@H]2C(=O)CC[C@@]3(O)[C@H]1C5 [NALOXONE]
AD50 (Mus musculus [1]): 0.1 | Activity (Mus musculus [2]): 0.04 mg/kg

Oc1ccc2c3c1OC1c4[nH]c5ccccc5c4C[C@@]4(O)[C@@H](C2)N(Cc2ccccc2)CCC314 (some centres undefined)
Ki [3]: 115 nM | Ki [4]: 134 nM | Ratio [5]: 46 | Ki (Mu-type opioid receptor): 5330 nM

Oc1ccc2c3c1OC1c4[nH]c5ccccc5c4C[C@@]4(O)[C@@H](C2)N(CC2CCCCC2)CCC314 (some centres undefined)
Ki [3]: 94.5 nM | Ki [4]: 1110 nM | Activity (Mus musculus [6]): inactive | Ratio [5]: 20 | Activity (Mus musculus [7]): inactive | Activity (Mus musculus [8]): inactive | Ki (Mu-type opioid receptor): 1920 nM | Activity (Mus musculus [9]): inactive

Oc1ccc2c3c1O[C@H]1c4[nH]c5c(c4C[C@@]4(O)[C@@H](C2)N(CC2CC2)CC[C@]314)C[C@@]1(O)[C@H]2Cc3ccc(O)c4c3[C@@]1(CCN2CC1CC1)[C@H]5O4
Activity (Mus musculus [10]): inactive

Oc1ccc2c3c1OC1c4[nH]c5ccccc5c4C[C@@]4(O)[C@@H](C2)N(CCC2CCCCC2)CCC314 (some centres undefined)
Ki [3]: 181 nM | Ki [4]: 378 nM | Ratio [5]: 0 | Ki (Mu-type opioid receptor): 7.3 nM | Activity (Mus musculus [11]): 3.86 mg/kg | Activity (Mus musculus [12]): 0.39 mg/kg | Activity (Mus musculus [13]): 2.42 mg/kg

Oc1ccc2c3c1O[C@H]1c4[nH]c5ccccc5c4C[C@@]4(O)[C@@H](C2)N(CC2CC2)CC[C@]314 [NALTRINDOLE]
Ki [3]: 0.04 nM | Ki [4]: 5.8 nM | Activity (Mus musculus [10]): inactive

CCCN(CC1CC1)C1Cc2ccc(O)c3c2C2C(O3)C(NC(=O)/C=C/C(=O)OC)CC[C@]21O (some centres undefined)
AD50 (Mus musculus [1]): 1.25 ug brain-1

CN1CC[C@]23c4c5ccc(O)c4O[C@H]2[C@@H](O)C=C[C@H]3[C@H]1C5.CN1CC[C@]23c4c5ccc(O)c4O[C@H]2[C@@H](O)C=C[C@H]3[C@H]1C5.O=S(=O)(O)O
Activity (Mus musculus [11]): 0.73 mg/kg | Activity (Mus musculus [12]): 0.4 mg/kg | Activity (Mus musculus [13]): 3.1 mg/kg
